Literature values, collected in patent US20220125792A1, “USE OF COMPOSITION CONTAINING CDK4/6 INHIBITOR IN COMBINATION WITH ANASTROZOLE IN PREPARATION OF MEDICAMENT FOR TREATING TUMOR DISEASES” (Jiangsu Hengrui Medicine Co., Ltd., priority 2019, published 2022).

Columns and labels:
[1] = test system: systemic aromatization and plasma estrogen level; conditions: letrozole 2.5 mg once a day, postmenopausal women with metastatic breast cancer

N#Cc1ccc(C(c2ccc(C#N)cc2)n2cncn2)cc1 [letrozole]
inhibition of systemic aromatization and plasma estrogen level, compared with anastrozole (1 mg daily) [1]: more effective systemic aromatization and plasma estrogen level inhibitor than anastrozole | total remission rate (ORR), letrozole versus anastrozole (advanced breast cancer; European Journal of Cancer 39 (2003) 2318-2327): significantly superior to anastrozole | response of advanced breast cancer, second-line hormonal therapy, letrozole versus anastrozole (advanced breast cancer; open randomized trial): responded more strongly to letrozole than to anastrozole
